These results are taken from patent publication US11110105B2, “Compounds, composition and uses thereof for treating cancer” (INSTITUT GUSTAVE ROUSSY, priority 2017, dated 2021).

Read-outs that look alike come from different tables or passages of the source.

Data set [1] concerns MCA205 globin-SL8-intron tumors. Briefly: Tumor challenge, MCA205 globin-SL8-intron in immunodeficient Nu/Nu nude mice. It counts as in vivo, mouse. The following applies: 18 mg/kg intraperitoneally. The method, then:
(D) MCA205 globin-SL8-intron cells were inoculated subcutaneously on the […] mice flank. […] Tumor size was assessed every 3 to 4 days until day 27. Each line represents the tumor size in area (mm^2) of 6 mice in each group. Data are given as mean ±SEM. *p<0.05, **p<0.01 (ANOVA with Tukey's multiple comparison test comparing all groups). (E) MCA205 globin-SL8-intron cells were inoculated subcutaneously on the Nude nu/nu mice flank. […] Tumor size was assessed every 3 to 4 days until day 27. Each line represents the tumor size in area (mm^2) of 6 mice in each group. Data are given as mean ±SEM. (A) Experimental settings. Growth of (B) sarcoma MCA205 or (C) melanoma B16F10 cells that both stably express the globin-SL8-intron construct or (D) MCA205 Wild Type (WT) or (E) B16F10 WT cells that were subcutaneously inoculated on the flank of immunocompetent C57BL/6 mice injected intraperitoneally with 12 mg/kg or 18 mg/kg of isoginkgetin at days 5, 10 and 15 after inoculation. Tumor size was assessed every 3 to 4 days until reaching the established ethical endpoints. Each line represents the tumor size in area (mm^2) of 6 mice in each group. […] Area of the tumor is recorded every 3 to 4 days until day 27. […] Results are expressed as mean ±SEM. *[…] with Tukey's multiple comparison test comparing all groups).

A short description of another data set: Water solubility. It counts as physicochemical.
Data set [2] deals with MCA205 globin-SL8-intron (MCA205 GI) tumors. As to the kind of experiment: Tumor challenge, MCA205 globin-SL8-intron in immunocompetent C57BL/6 mice. It counts as in vivo, mouse. The following applies: for tumor growth: C57BL/6. As to the method:
(A) Experimental settings. (B) MCA205 globin-SL8-intron cells were inoculated subcutaneously on the mice flank. Five days and fifteen days later, 6 mg/kg, 12 mg/kg or 18 mg/kg isoginkgetin was injected intraperitoneally. Tumor size was assessed every 3 to 4 days until day 27. Each line represents the tumor size in area (mm^2) of 6 mice in each group. Data are given as mean ±SEM. *p<0.05 (ANOVA with Tukey's multiple comparison test comparing all groups).
(A) Experimental settings. Growth of (B) sarcoma MCA205 or (C) melanoma B16F10 cells that both stably express the globin-SL8-intron construct or (D) MCA205 Wild Type (WT) or (E) B16F10 WT cells that were subcutaneously inoculated on the flank of immunocompetent C57BL/6 mice injected intraperitoneally with 12 mg/kg or 18 mg/kg of isoginkgetin at days 5, 10 and 15 after inoculation. Tumor size was assessed every 3 to 4 days until reaching the established ethical endpoints. Each line represents the tumor size in area (mm^2) of 6 mice in each group. Size in area (mm^2) of (F) MCA205 globin-SL8-intron, (G) B16F10 globin-SL8-intron, (H) MCA205 WT or (I) B16F10 WT tumors subcutaneously inoculated on the flank of immunodeficient Nu/Nu Nude mice injected intraperitoneally with 18 mg/kg of isoginkgetin at days 5, 10 and 15 after inoculation. Data are presented at the day before the endpoints are reached.
Data are given as mean ±SEM. *P<0.05, **P<0.01, ***P<0.001 (unpaired student t test). […] Tumor size was assessed every 3 to 4 days until reaching the established ethical endpoints. Each line represents the tumor size in area (mm^2) of at least 6 mice in each group. Data are given as mean ±SEM. *p<0.05, **p<0.01 (ANOVA with Tukey's multiple comparison test comparing all groups). […] A Log-rank (Mantel-Cox) test was performed.
C57B1/6J female mice are obtained from Harlan. NU/NU nude mouse mice are obtained from Charles River. At 7 weeks old, mice are injected subcutaneously on the right flank with 5×10^4 MCA205-Globin-SL8-intron cells or with 4×10^4 B16F10-Globin-SL8-intron cells along with matrigel (VWR). […] Fifteen days after challenge mouse are again treated intreaperitonealy with the same drug. Area of the tumor is recorded every 3 to 4 days until day 27. All animal experiments were carried out in compliance with French and European laws and regulations. Results are expressed as mean ±SEM. *p<0.05, **P<0.01, ***P<0.001 (ANOVA with Tukey's multiple comparison test comparing all groups).

[3] abbreviates: 18 mg/kg intraperitoneally, days 5, 10 and 15.
Setting [4] is: 18 mg/kg intraperitoneally, days 5 and 15.

On to `COc1ccc(-c2cc(=O)c3c(OC)cc(OP(=O)([O-])[O-])c(-c4cc(-c5cc(=O)c6c(OC)cc(OP(=O)([O-])[O-])cc6o5)ccc4OC)c3o2)cc1.[Na+].[Na+].[Na+].[Na+]` [IM2P2], for which the tumor growth entry in data set [1] (days 5 and 15) is recorded as “any of the compounds used have an effect on the tumor growth”; in data set [2] (setting [3]) it was “no impact”; in data set [2] (setting [4]), “did not demonstrate any tumor growth decrease”. Moreover, the water solubility result is recorded as “able to be dissolved in water” in “Water solubility” and “considerably higher than that of the parent compound isoginkgetin” in the data set “Water solubility” (listed as M2P2). In data set [2] (18 mg/kg intraperitoneally), the “survival (Kaplan Meier)” value is recorded as “does not impact survival”.

For `COc1ccc(-c2cc(=O)c3c(O)cc(O)c(-c4cc(-c5cc(=O)c6c(O)cc(O)cc6o5)ccc4OC)c3o2)cc1` [Isoginkgetin, isoginkgetin], the tumor growth result in data set [1] (days 5, 10 and 15) is reported as “No effect”. In addition, in “Water solubility”, the water solubility result is reported as “insoluble in water”. Moreover, the “reduction of tumor growth at day 27 after challenge” value in data set [2] (6 mg/kg intraperitoneally, days 5 and 15) is listed as 50%; in data set [2] (setting [4]), 50%. For the same molecule, the “reduction of tumor size at day 27 after challenge” value in data set [2] (12 mg/kg intraperitoneally, days 5, 10 and 15) is “over 50%”; in data set [2] (setting [3]), “over 50%”. Also, the “survivors 100 days after tumor inoculation” value in data set [2] (18 mg/kg intraperitoneally, Kaplan Meier) is reported as “around 30%”.
